Experimental data taken from US8957093B2, “N-biphenylmethylindole modulators of PPARG” (The Scripps Research Institute, priority 2011, dated 2015).
Like-named read-outs stand apart in the source and are kept apart here.

Legend:
[1] = test system: PPARG (murine PPARg2 or full-length human PPARG, 3xPPRE-luciferase reporter); assay: Cell-based PPRE-luciferase transactivation assay in COS-1 cells; conditions: for EC50: PPRE-luciferase, COS-1 cells, NA = not active, read-out: EC50 (nM) PPRE
Experimental: Cell-Based Transactivation Assay:
PPRE is a DNA that contains a binding site for PPARG; thus PPRE is a PPAR response element, used herein as a promoter reporter. The binding site is a DR1 response element with the sequence AGGTCA repeated 3 times in tandem and then fused to a construct for luciferase.
Thus, PPRE is the basis of the cell based transactivation assay described below. The plasmid DNA is co-transfected along with a plasmid for PPARG into COS-1 cells. After an overnight incubation, cells are treated with DMSO or compounds.
Confluent COS-1 cells were transfected with 4.5 μg murine PPARg2-pSV Sport or full-length human PPAR9-pSport6, 4.5 μg 3×PPRE-luciferase reporter and 27 μL X-treme Gene 9 transfection reagent in serum-free opti-mem media (Gibco), followed by overnight incubation at 37° C., 5% CO2. Transfected cells were plated in white Perkin Elmer 384-well plates and incubated 4 hours. […] After 18 hour incubation, treated cells were developed with Brite Lite Plus (Perkin Elmer) and read in 384-well Luminescence Perkin Elmer EnVision Multilabel plate reader. Graphs were plotted in triplicate in GraphPad Prism Software as fold change of treated cells over DMSO control cells.

GST-PPARG-LBD = GST-PPARG-LBD (Homo sapiens (Human), UniProt P37231); assay: Lanthascreen PPARG competitive binding assay (Invitrogen, TR-FRET); conditions: NA = not active, inc = incomplete curve, read-out: IC50 (nM) Lantha
How it was run: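 Values are fold change in 520 nm/490 nm FRET ratio relative to a 2% DMSO no-ligand control, excitation 340 nm. Compound dilutions starting at 10 μM competed against 5 nM Fluormone Pan-PPAR Green for GST-PPARG-LBD bound by 5 nM Tb anti-GST antibody. Incubation 2 h in the dark in assay buffer C, triplicate wells.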

[2] = biological target: Gal-4-PPAR (human PPAR LBD fused to GAL4 DNA-binding domain) (Homo sapiens (Human), UniProt P37231); assay: GAL4-PPARG LBD / UAS-luciferase transactivation assay in HEK 293T cells; format: cell-based
[3] = Lanthascreen competitive binding
[4] = GAL4 transactivation, HEK 293T cells; NA = not active; read-out: EC50 (nM) GAL4
[5] = HEK-293T, 18 h; read-out: % transactivation at 10 μM (GAL4)

Chain of GST-PPARG-LBD (P37231 238-503): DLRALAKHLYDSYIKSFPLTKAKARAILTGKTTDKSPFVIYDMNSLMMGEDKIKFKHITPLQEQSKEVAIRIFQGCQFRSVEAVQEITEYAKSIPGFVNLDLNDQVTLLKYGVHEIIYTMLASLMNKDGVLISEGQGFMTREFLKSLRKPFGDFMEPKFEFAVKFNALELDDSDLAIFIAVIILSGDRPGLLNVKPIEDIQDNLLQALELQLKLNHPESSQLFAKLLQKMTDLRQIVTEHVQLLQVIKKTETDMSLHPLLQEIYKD
Chain of Gal-4-PPAR (human PPAR LBD fused to GAL4 DNA-binding domain) (P37231 238-503): as above

Row | SMILES | PPRE transactivation (% in parentheses) ([1]; rosiglitazone = 100%) | IC50 (GST-PPARG-LBD; [3]) [nM] | EC50 [1] [nM] | other results
1 | Cc1c(C)n(Cc2ccc(-c3ccccc3C(=O)O)cc2)c2ccc(C(=O)NCCN3CCOCC3)cc12 [Example 85, 4′-((2,3-dimethyl-5-(2-morpholinoethylcarbamoyl)-1H-indol-1-yl)methyl)biphenyl-2-carboxylic acid] | (0%) | > 1000 |  | 
3 | CCC(NC(=O)c1ccc2c(ccn2Cc2ccccc2-c2ccc(C(=O)O)cc2)c1)c1ccccc1 (stereo not drawn) [Example 70, 2′-((5-((1-Phenylpropyl)carbamoyl)-1H-indol-1-yl)methyl)-[1,1′-biphenyl]-4-carboxylic acid] |  | 10 |  | PPRE transactivation (% in parentheses) [1]: (0%)
4 | C[C@H](NC(=O)c1ccc2c(ccn2Cc2ccc(-c3ccccc3C(=O)O)cc2)c1)c1ccc(Br)cc1 [Example 130, (S)-4′-((5-((1-(4-Bromophenyl)ethyl)carbamoyl)-1H-indol-1-yl)methyl)-[1,1′-biphenyl]-2-carboxylic acid] | (0%) | 163 |  | 
5 | CCC(NC(=O)c1ccc2c(ccn2Cc2cccc(-c3ccc(C(=O)O)cc3)c2)c1)c1ccccc1 (stereo not drawn) [Example 67, 3′-((5-((1-Phenylpropyl)carbamoyl)-1H-indol-1-yl)methyl)-[1,1′-biphenyl]-4-carboxylic acid] | (8%) | 2 | 2 | 
6 | Cc1c(C)n(Cc2ccc(-c3ccccc3C(=O)O)cc2)c2ccc(C(=O)NCc3ccccc3Cl)cc12 [Example 108, 4′-((5-(2-chlorobenzylcarbamoyl)-2,3-dimethyl-1H-indol-1-yl)methyl)biphenyl-2-carboxylic acid] | (15%) | 6 | 535 | 
7 | Cc1c(C)n(Cc2ccc(-c3ccccc3C(=O)O)cc2)c2ccc(C(=O)NCc3ccc(I)cc3)cc12 [compound 7, 4′-((5-(4-Iodobenzylcarbamoyl)-2,3-dimethyl-1H-indol-1-yl)methyl)biphenyl-2-carboxylic acid] | (23%) | 4 | 19 | 
8 | Cc1c(C)n(Cc2ccc(-c3ccccc3C(=O)O)cc2)c2ccc(C(=O)N[C@@H](C)c3ccc(Cl)cc3)cc12 [compound 27, (S)-4′-((5-((1-(4-Chlorophenyl)ethyl)carbamoyl)-2,3-dimethyl-1H-indol-1-yl)methyl)-[1,1′-biphenyl]-2-carboxylic acid] | (6%) | 53 | 33 | 
9 | Cc1c(C)n(Cc2ccc(-c3ccccc3C(=O)O)cc2)c2ccc(C(=O)NCC3COc4ccccc4O3)cc12 (stereo not drawn) [Example 88, 4′-((5-((2,3-dihydrobenzo[b][1,4]dioxin-2-yl)methylcarbamoyl)-2,3-dimethyl-1H-indol-1-yl)methyl)biphenyl-2-carboxylic acid] | (17%) | 11 | 170 | 
10 | Cc1c(C)n(Cc2ccc(-c3ccccc3C(=O)O)cc2)c2ccc(C(=O)NC3CCCC3)cc12 [Example 90, 4′-((5-(cyclopentylcarbamoyl)-2,3-dimethyl-1H-indol-1-yl)methyl)biphenyl-2-carboxylic acid] | (18%) | 25 | > 1000 | 
11 | Cc1c(C)n(Cc2ccc(-c3ccccc3C(=O)O)cc2)c2ccc(C(=O)NCc3cccc(N)c3)cc12 [Example 80, 4′-((5-(3-aminobenzylcarbamoyl)-2,3-dimethyl-1H-indol-1-yl)methyl)biphenyl-2-carboxylic acid] | (20%) | 13 | 2700 | 
12 | Cc1c(C)n(Cc2ccc(-c3ccccc3C(=O)O)cc2)c2ccc(C(=O)NCc3ccc(S(C)(=O)=O)cc3)cc12 [compound 10, 4′-((2,3-Dimethyl-5-(4-(methylsulfonyl)benzylcarbamoyl)-1H-indol-1-yl)methyl)biphenyl-2-carboxylic acid] | (0%) | 553 |  | 
14 | Cc1c(C)n(Cc2ccc(-c3ccccc3C(=O)O)cc2)c2ccc(C(=O)NCc3ccc(OC(F)(F)F)cc3)cc12 [compound 15, 4′-((2,3-Dimethyl-5-(4-(trifluoromethoxy)benzylcarbamoyl)-1H-indol-1-yl)methyl)biphenyl-2-carboxylic acid] | (20%) |  | 83 | 
15 | Cc1c(C)n(Cc2ccc(-c3ccccc3C(=O)O)cc2)c2ccc(C(=O)NCc3ccc(F)c(F)c3)cc12 [Example 77, 4′-((5-(3,4-difluorobenzylcarbamoyl)-2,3-dimethyl-1H-indol-1-yl)methyl)biphenyl-2-carboxylic acid] | (20%) |  | 95 | 
16 | Cc1c(C)n(Cc2ccc(-c3ccccc3C(=O)O)cc2)c2ccc(C(=O)N[C@@H](C)[C@@H]3CCCN3C(=O)OCc3ccccc3)cc12 [Example 237, 4′-((5-(((S)-1-((S)-1-((benzyloxy)carbonyl)pyrrolidin-2-yl)ethyl)carbamoyl)-2,3-dimethyl-1H-indol-1-yl)methyl)-[1,1′-biphenyl]-2-carboxylic acid] |  | 118 |  | EC50 [2, 4]: 417 nM; activation at 10 µM [2, 5]: 30%
17 | Cc1c(C)n(Cc2ccc(-c3ccccc3C(=O)O)cc2)c2ccc(C(=O)N[C@H](C)c3ccc(C4CC4)nc3)cc12 [Example 264, (R)-4′-((5-((1-(6-cyclopropylpyridin-3-yl)ethyl)carbamoyl)-2,3-dimethyl-1H-indol-1-yl)methyl)-[1,1′-biphenyl]-2-carboxylic acid] |  | 32 |  | EC50 [2, 4]: 1990 nM; activation at 10 µM [2, 5]: 35%
18 | COc1cc(OC)cc([C@H](C)NC(=O)c2ccc3c(c2)c(C)c(C)n3Cc2ccc(-c3ccccc3C(=O)O)cc2)c1 [Example 147, (S)-4′-((5-((1-(3,5-dimethoxyphenyl)ethyl)carbamoyl)-2,3-dimethyl-1H-indol-1-yl)methyl)-[1,1′-biphenyl]-2-carboxylic acid] |  | 20 |  | EC50 [2, 4]: 9280 nM; activation at 10 µM [2, 5]: 20%
19 | Cc1c(C)n(Cc2ccc(-c3ccccc3C(=O)O)cc2)c2ccc(C(=O)N[C@@H](C)c3cc(F)ccc3C(F)(F)F)cc12 [Example 241, (S)-4′-((5-((1-(5-fluoro-2-(trifluoromethyl)phenyl)ethyl)carbamoyl)-2,3-dimethyl-1H-indol-1-yl)methyl)-[1,1′-biphenyl]-2-carboxylic acid] |  | 57 |  | EC50 [2, 4]: 453 nM; activation at 10 µM ([2]; HEK-293T, 18 h, read-out: % transactivation at 10 μM (GAL4)): 20%
20 | Cc1c(C)n(Cc2ccc(-c3ccccc3C(=O)O)cc2)c2ccc(C(=O)N[C@@H](C)c3cc(F)c(F)cc3F)cc12 [Example 301, (S)-4′-((2,3-Dimethyl-5-((1-(2,4,5-trifluorophenyl)ethyl)carbamoyl)-1H-indol-1-yl)methyl)-[1,1′-biphenyl]-2-carboxylic acid] |  |  |  | IC50 (GST-PPARG-LBD; Lanthascreen PPARG competitive binding): 8 nM; EC50 ([2]; GAL4 transactivation; read-out: EC50 (nM) GAL4): 198 nM; activation at 10 µM [2, 5]: 40%
21 | Cc1c(C)n(Cc2ccc(-c3ccccc3-c3nnn[nH]3)cc2)c2ccc(C(=O)N[C@H](C)c3cccc(Br)c3)cc12 [Example 187, (R)-1-((2′-(1H-tetrazol-5-yl)-[1,1′-biphenyl]-4-yl)methyl)-N-(1-(3-bromophenyl)ethyl)-2,3-dimethyl-1H-indole-5-carboxamide] |  | < 1 |  | EC50 [2, 4]: 5 nM; activation at 10 µM [2, 5]: 20%
22 | Cc1c(F)cccc1[C@H](C)NC(=O)c1ccc2c(c1)c(C)c(C)n2Cc1ccc(-c2ccccc2C(=O)O)cc1 [Example 145, (S)-4′-((5-((1-(3-fluoro-2-methylphenyl)ethyl)carbamoyl)-2,3-dimethyl-1H-indol-1-yl)methyl)-[1,1′-biphenyl]-2-carboxylic acid] |  | < 1 |  | EC50 [2, 4]: 70 nM; activation at 10 µM [2, 5]: 35%
